# Assay results published in US11364275B2, “Linear lipopeptide paenipeptins and methods of using the same” (priority 2017, dated 2022).
# Where two headings read alike, the source gives them in different places. Where a SMILES comes first, the peptide text is derived from it. [ ]: non-standard residue; d: D form. The star is where a group is joined. Decanoyl = CCCCCCCCCC(=O)*; Heptanoyl = CCCCCCC(=O)*; Dab = NCC[C@H](N)C(=O)O
# Experiments:
# rabbit red blood cells = assay: Hemolytic activity; type: cell-based; conditions: for Hemolysis: relative to Triton X-100
# Protocol: Hemolytic activity was evaluated using defibrinated rabbit blood in a 96-well plate as described previously. A nonionic surfactant Triton X-100, which is capable of lysing red blood cells (RBCs), was used at 0.1% as a positive control. Briefly, rabbit blood (Hardy Diagnostics, Santa Maria, Calif.) was diluted with phosphate buffered saline (PBS; pH 7.2) at a 1:19 ratio (v/v) and free hemoglobin was removed by washing RBCs and centrifugation four times at 1,000×g at 4° C. for 5 min. Aliquots (50 μL) of washed RBCs were incubated with 150 μL two-fold dilutions of paenipeptin analogues at final concentrations of 16-128 μg/mL at 37° C. for 30 min in a microtiter plate (NBS, Corning Inc.). After incubation, treated RBCs were gently mixed by repeated pipetting. Aliquots (20 μL) of the cell suspension were mixed with 200 μL PBS in a new 96-well plate and centrifuged at 2,204×g for 10 min. The supernatant was transferred to a new 96-well plate for absorbance measurement at 415 nm using a Cell Imaging Multimode Reader (Cytation 3, BioTek; Winooski, Vt.). The percent hemolysis observed after exposure to each paenipeptin analogue was calculated relative to Triton X-100.
# S. aureus ATCC 43300 = type: cell-based, Staphylococcus aureus
# From the text: (§1) The surviving cells from each antimicrobial concentration with no visible growth were enumerated by plating on tryptic soy agar (TSA). MBC was defined as the lowest concentration of the antimicrobial agent that led to at least a 99.9% reduction in the number of viable bacterial cells relative to the initial inoculum. There were three independent experiments with one replicate in each experiment.
# S. aureus ATCC 29213 [1] = type: cell-based, Staphylococcus aureus
# From the text: as §1
# [2] = tested on: Pseudomonas aeruginosa ATCC 27853; type: cell-based; conditions: ATCC 27853
# [3] = tested on: Acinetobacter baumannii ATCC 19606; type: cell-based; conditions: ATCC 19606
# S. aureus ATCC 29213 [4] = type: cell-based, Staphylococcus aureus; conditions: ATCC 29213
# Protocol: The impact of human serum on the antibacterial activity of selected paenipeptin analogues was determined using a procedure similar to that used for MIC determination as described above except that the microbiological medium was replaced by human serum (MP Biomedicals, Solon, Ohio). Paenipeptin analogues were two-fold diluted in 100% human serum and mixed with an equal volume of 90% serum containing approximately 1.5×10^5 CFU/mL of E. coli ATCC 25922 or S. aureus ATCC 29213. The final paenipeptin concentrations ranged from 0.5-64 μg/mL in 95% serum. The MIC in the presence of serum was then tested as described above.
# [5] = tested on: Escherichia coli ATCC 25922; type: cell-based; conditions: ATCC 25922
# E. coli ATCC 25922 = type: cell-based, Escherichia coli
# From the text: as §1
# [6] = tested on: Klebsiella pneumoniae ATCC 13883; type: cell-based; conditions: ATCC 13883
# Protocol: (§3) The minimum inhibitory concentration (MIC) of paenipeptin analogues was determined using the broth microdilution method (Wirker, M. A. Methods for Dilution Antimicrobial Susceptibility Tests for Bacteria that Grow Aerobically: Approved Standard M07-A8; Clinical and Laboratory Standards Institute, Wayne, Pa., 2009). Seven reference strains (Acinetobacter baumannii ATCC 19606, Escherichia coli ATCC 25922, Klebsiella pneumoniae ATCC 13883, Pseudomonas aeruginosa ATCC 27853, Enterococcus faecium ATCC 19434, Staphylococcus aureus ATCC 29213 and methicillin-resistant S. aureus ATCC 43300) were subjected to MIC testing.
# (§4) Paenipeptin analogues were two-fold diluted in tryptic soy broth (TSB; Becton Dickinson) and mixed with an equal volume of bacterial suspensions in TSB containing approximately 1.5×10^5 colony-forming units (CFU)/mL in a clear UV-sterilized 96-well microtiter plate (NBS, Corning Inc., Corning, N.Y.). […] The microtiter plate was incubated at 37° C. for 18-20 h.
# [7] = tested on: Staphylococcus aureus ATCC 29213; type: cell-based; conditions: ATCC 29213
# Protocol: as §3, §4
# A. baumannii ATCC 19606 = type: cell-based, Acinetobacter baumannii
# From the text: as §1
# [8] = tested on: methicillin-resistant S. aureus strain LAC biofilm; assay: Established catheter-associated biofilm in vitro; type: cell-based, Staphylococcus aureus; conditions: data not shown
# Protocol: Each well was inoculated with the methicillin-resistant S. aureus strain LAC or P. aeruginosa ATCC 27853 to an OD600nm of 0.05. […] After 72 h of exposure, catheters were rinsed with PBS, followed by sonication (for S. aureus) or vigorous vortexing (for P. aeruginosa) to quantitatively recover adherent bacteria. Viable S. aureus or P. aeruginosa cells were enumerated by plating serial dilutions on TSA.
# K. pneumoniae ATCC 13883 = type: cell-based, Klebsiella pneumoniae
# From the text: as §1
# P. aeruginosa ATCC 27853 = type: cell-based, Pseudomonas aeruginosa
# From the text: as §1
# E. faecium ATCC 19434 = type: cell-based, Enterococcus faecium
# From the text: as §1
# [9] = tested on: methicillin-resistant S. aureus ATCC 43300; type: cell-based, Staphylococcus aureus; conditions: ATCC 43300
# Protocol: as §3, §4
# [10] = tested on: A. baumannii FDA-CDC AR 0070; assay: microbe, parasite or virus in culture; conditions: Acinetobacter baumannii, read-out: MIC alone
# [11] = tested on: A. baumannii FDA-CDC AR 0052; assay: microbe, parasite or virus in culture; conditions: Acinetobacter baumannii, read-out: MIC alone
# [12] = tested on: A. baumannii FDA-CDC AR 0037; assay: microbe, parasite or virus in culture; conditions: Acinetobacter baumannii, read-out: MIC alone
# [13] = tested on: A. baumannii FDA-CDC AR 0063; assay: Time-kill kinetics in 95% human serum, alone and combined; type: cell-based, Acinetobacter baumannii; conditions: A. baumannii AR 0063, 24 h
# Protocol: Bacterial viable counts were determined at 0, 2, 4, 6, and 24 h after antimicrobial treatment. Bacterial surviving counts at 24 h endpoints were subjected to analysis of variance (ANOVA) followed by Tukey's honest significant difference (HSD) tests using SPSS Statistics (version 24; SPSS, Inc., Chicago, Ill., USA).
# To further test the therapeutic potential of paenipeptin analogues, the time-kill kinetics assays of paenipeptins alone or in combination with other antibiotics were performed in 95% human serum in vitro. Without antimicrobial treatment, the population of A. baumannii FDA-CDC AR 0063 increased from 5.8 log to 9.3 log within 24 h. […] (FIG. 7A).
# [14] = tested on: K. pneumoniae FDA-CDC AR 0034; assay: microbe, parasite or virus in culture; conditions: Klebsiella pneumoniae, read-out: MIC alone
# [15] = tested on: K. pneumoniae FDA-CDC AR 0044; assay: microbe, parasite or virus in culture; conditions: Klebsiella pneumoniae, read-out: MIC alone
# [16] = tested on: K. pneumoniae FDA-CDC AR 0097; assay: microbe, parasite or virus in culture; conditions: Klebsiella pneumoniae, read-out: MIC alone
# [17] = tested on: A. baumannii FDA-CDC AR 0063; assay: microbe, parasite or virus in culture; conditions: Acinetobacter baumannii, read-out: MIC alone
# [18] = tested on: K. pneumoniae FDA-CDC AR 0068; assay: microbe, parasite or virus in culture; conditions: Klebsiella pneumoniae, read-out: MIC alone
# [19] = tested on: K. pneumoniae FDA-CDC AR 0080; assay: microbe, parasite or virus in culture; conditions: Klebsiella pneumoniae, read-out: MIC alone
# [20] = tested on: A. baumannii FDA-CDC AR 0083; assay: microbe, parasite or virus in culture; conditions: Acinetobacter baumannii, read-out: MIC alone
# [21] = tested on: Acinetobacter baumannii ATCC 19606; assay: MIC of antibiotics with or without paenipeptin analogues (potentiation); type: cell-based; conditions: Acinetobacter baumannii, ATCC19606; A. baumannii ATCC 19606; rifampicin alone; read-out: MIC of rifampicin at 0 μg/mL of paenipeptin analogues
# From the text: (§2) Gram-negative bacteria, including Acinetobacter and Klebsiella, are intrinsically resistant to the hydrophobic antibiotic rifampicin.
# [22] = tested on: Klebsiella pneumoniae ATCC 13883; assay: as above; type: cell-based; conditions: Klebsiella pneumoniae, ATCC13883
# From the text: as §2
structure (smiles),measurement,setting,value
CCCCCCC(=O)N[C@@H](CCN)C(=O)N[C@@H](Cc1ccccc1)C(=O)N[C@@H](CCN)C(=O)N[C@H](Cc1ccccc1)C(=O)N[C@@H](CC(C)C)C(=O)N[C@@H](CCN)C(=O)N[C@H](CC(C)C)C(=O)N[C@@H](Cc1ccccc1)C(=O)N[C@@H](CO)C(N)=O [Analogue 7] (Heptanoyl-[Dab]F[Dab][dF]L[Dab][dL]FS-NH2),Hemolysis,rabbit red blood cells; 32 μg/mL,5.10 ± 1.26%
same,Hemolysis,rabbit red blood cells; 64 μg/mL,18.8 ± 2.44%
same,Hemolysis,rabbit red blood cells; 128 μg/mL,64.2 ± 3.28%
same,MBC,S. aureus ATCC 43300,8 to 16 µg/mL
same,MBC,S. aureus ATCC 29213 [1],8 to 32 µg/mL
same,MIC,[2],1 to 2 µg/mL
same,MIC,[3],2 to 4 µg/mL
same,Minimum inhibitory concentration,S. aureus ATCC 29213 [4],32 to 64 µg/mL
same,MIC,[5],0.5 to 2 µg/mL
same,Minimum inhibitory concentration,[5],0.5 to 2 µg/mL
same,MBC,E. coli ATCC 25922,8 to 16 µg/mL
CCCCCCCCCC(=O)N[C@@H](CCN)C(=O)N[C@H](C(=O)N[C@@H](CCN)C(=O)N[C@H](Cc1ccccc1)C(=O)N[C@@H](CC(C)C)C(=O)N[C@@H](CCN)C(=O)N[C@@H](C(=O)N[C@@H](CC(C)C)C(=O)N[C@@H](CO)C(N)=O)C(C)C)[C@@H](C)CC [Analogue 12] (Decanoyl-[Dab]I[Dab][dF]L[Dab][dV]LS-NH2),MIC,[6],2 to 4 µg/mL
same,MIC,[7],2 to 4 µg/mL
same,Minimum inhibitory concentration,[7],2 to 4 µg/mL
same,Hemolysis,rabbit red blood cells; 16 μg/mL,14.3 ± 4.25%
same,Hemolysis,rabbit red blood cells; 32 μg/mL,37.2 ± 8.62%
same,Hemolysis,rabbit red blood cells; 64 μg/mL,73.4 ± 7.59%
same,hemolytic activity (in words),rabbit red blood cells; 128 μg/mL,strong hemolytic activity
same,Hemolysis,rabbit red blood cells; 128 μg/mL,93.9 ± 7.57%
same,MBC,A. baumannii ATCC 19606,0.5 to 2 µg/mL
same,activity against established catheter-associated biofilm (in words),[8],no activity
same,MBC,K. pneumoniae ATCC 13883,4 to 8 µg/mL
same,MBC,S. aureus ATCC 43300,2 to 4 µg/mL
same,MBC,S. aureus ATCC 29213 [1],4 to 8 µg/mL
same,MIC,[2],1 to 2 µg/mL
same,MBC,P. aeruginosa ATCC 27853,2 to 4 µg/mL
same,MIC,[3],0.5 to 2 µg/mL
same,MBC,E. faecium ATCC 19434,2 to 4 µg/mL
same,MIC,[9],2 to 4 µg/mL
same,MIC,[5],2 to 8 µg/mL
same,Minimum inhibitory concentration,[5],2 to 8 µg/mL
CO[C@H]1/C=C/O[C@@]2(C)Oc3c(C)c(O)c4c(O)c(c(/C=N/N5CCN(C)CC5)c(O)c4c3C2=O)NC(=O)/C(C)=C\C=C\[C@H](C)[C@H](O)[C@@H](C)[C@@H](O)[C@@H](C)[C@H](OC(C)=O)[C@@H]1C [rifampicin],MIC,[10],1 µg/mL
same,MIC,[11],1 µg/mL
same,MIC,[12],2 µg/mL
same,"log reduction of cell population, single agent at 4 μg/ml",[13],1.4 log
same,MIC,[14],16 µg/mL
same,MIC,[15],32 µg/mL
same,MIC,[16],32 µg/mL
same,MIC,[17],1 µg/mL
same,MIC,[18],32 µg/mL
same,MIC,[19],> 32 µg/mL
same,MIC,[20],32 µg/mL
same,MIC,[21],16 µg/mL
same,MIC,"[22]; K. pneumoniae ATCC 13883, rifampicin alone, read-out: MIC of rifampicin at 0 μg/mL of paenipeptin analogues",16 µg/mL
same,MIC,"[22]; K. pneumoniae, read-out: MIC of rifampicin alone",19.4 µM
